The text below walks through data of US20030225152A1, “3-(Arylamino)methylene-1, 3-dihydro-2h-indol-2-ones as kinase inhibitors” (priority 2001, published 2003).

The test system of the first test is VEGF induced increases in intracellular calcium levels in HUVEC (human umbilical vein endothelial cells). As to the kind of experiment: VEGF Stimulated Ca++ Signal in vitro (FLIPR). In kind it is cell-based. The settings on record: 10 μM, VEGF 5 ng/mL. The protocol:
VEGF Stimulated Ca^++ Signal in vitro
Automated FLIPR (Fluorometric Imaging Plate Reader) technology was used to screen for inhibitors of VEGF induced increases in intracellular calcium levels in fluorescent dye loaded endothelial cells. HUVEC (human umbilical vein endothelial cells) (Clonetics) were seeded in 96-well fibronectin coated black-walled plates overnight at 37° C./5%CO2. Cells were loaded with calcium indicator Fluo-4 for 45 minutes at 37° C. Cells were washed 4 times (Original Cell Wash, Labsystems) to remove extracellular dye. Test compounds were reconstituted in 100% DMSO and added to the cells to give a final DMSO concentration of 0.1%. For screening, cells were pre-incubated with test agents for 30 minutes, at a single concentration (10 μM) or at concentrations ranging from 0.01 to 10.0 μM followed by VEGF stimulation (5 ng/mL). Changes in fluorescence at 516 nm were measured simultaneously in all 96 wells using a cooled CCD camera. Data were generated by determining max-min fluorescence levels for unstimulated, stimulated, and drug treated samples. IC50 values for test compounds were calculated from % inhibition of VEGF stimulated responses in the absence of inhibitor.
For the molecule `O=C1Nc2ccccc2C1=CNc1ccc(Oc2ccccc2)cc1` [Example 41, 3-[(4-Phenoxyamino)-methylene]-1,3-dihydro-indol-2-one], the “VEGF Stimulated Ca^++ signal assay % inhibition @ 10 μM” value was determined as 16.00%.

As to `CCOC(=O)c1ccc(NC=C2C(=O)Nc3ccccc32)cc1` [Example 8, 4-[(2-Oxo-1,3-dihydro-indol-3-ylididenemethyl)-amino]-benzoic acid ethyl ester], the “VEGF Stimulated Ca^++ signal assay % inhibition @ 10 μM” value turned out to be 9%.

For `CC(=O)NS(=O)(=O)c1ccc(NC=C2C(=O)Nc3ccccc32)cc1` [Example 39, 2-Oxo-1,2-dihydro-indol-3-ylidenemethyl-sulfaacetamide], the “VEGF Stimulated Ca^++ signal assay % inhibition @ 10 μM” value is recorded as −14.50%.

As to “3-[(Chloro-trifluoromethyl-phenylamino)-methylene]-1,3-dihydro-indol-2-one [Example 45]”, the “VEGF Stimulated Ca^++ signal assay % inhibition @ 10 μM” value was 50.00%.

Turning to `COc1ccc(NC=C2C(=O)Nc3ccccc32)cc1OC` [Example 42, 3-[(3,4-Dimethoxyamino)-methylene]-1,3-dihydro-indol-2-one], the “VEGF Stimulated Ca^++ signal assay % inhibition @ 10 μM” value came out at 59.50%.

As to `O=C1Nc2ccc(F)cc2C1=CNc1ccc(N2CCCCC2)cc1` [Example 221], the “VEGF Stimulated Ca^++ signal assay % inhibition @ 10 μM” value is listed as 97.59%.

For the molecule “3-[(Fluoro-trifluoromethyl-phenylamino)-methylene]-1,3-dihydro-indol-2-one [Example 47]”, the “VEGF Stimulated Ca^++ signal assay % inhibition @ 10 μM” value is −2.50%.

The same test, now with this note: 0.01 to 10.0 μM, VEGF 5 ng/mL.
In general, IC50 refers to the point on the concentration scale where inhibition reaches its midpoint. `O=C1Nc2ccc(F)cc2C1=CNc1ccc(N2CCCCC2)cc1` [Example 221]: the IC50 was 0.93 µM.

The same test, now with this note: Homo sapiens, 10 μM, VEGF 5 ng/mL.
A word on the inhibition: it is the relative decrease from the control value, in per cent. In the case of `Cc1cc(F)ccc1NC=C1C(=O)Nc2ccccc21` [Example 14, 3-[(4-Fluoro-2-methyl-phenylamino)-methylene]-1,3-dihydro-indol-2-one], the inhibition at 10 µM was -14%.

`Cc1cc(NC=C2C(=O)Nc3ccccc32)ccc1O` [Example 133, 3-[(4-Hydroxy-3-methyl-phenylamino)-methylene]-1,3-dihydro-indol-2-one]: the inhibition at 10 µM was 73%.

For the molecule `Cc1cc(C)cc(NC=C2C(=O)Nc3ccc(Cl)cc32)c1` [Example 78, 3-[(3,5-Dimethylphenylamino)-methylene]-5-chloro-1,3-dihydro-indol-2-one], the inhibition at 10 µM is 8%.

As for `O=C1Nc2ccc(Cl)cc2C1=CNc1ccc(O)c(C(=O)O)c1` [Example 108, 5-(5-Chloro-2-oxo-1,2-dihydro-indol-3-ylidenemethylamino)-2-hydroxybenzoic acid], the inhibition at 10 µM was -14.5%.

Regarding `COC(=O)c1ccc(NC=C2C(=O)Nc3ccccc32)cc1OC` [Example 89, 2-Methoxy-4-[(2-oxo-1,2-dihydro-indol-3-ylidenemethyl)-amino]-benzoic acid methyl ester], the inhibition at 10 µM is 39.5%.

Turning to `O=C1Nc2ccccc2C1=CNc1ccc(O)c(Cl)c1` [Example 13, 3-[(3-Chloro-4-hydroxy-phenylamino)-methylene]-1,3-dihydro-indol-2-one], the inhibition at 10 µM was -12.5%.

Regarding `O=C1Nc2ccccc2C1CNc1ccc(Br)cc1` (stereo not drawn) [Example 3, 3-[(4-Bromo-phenylamino)-methyl]-1,3-dihydro-indol-2-one], the inhibition at 10 µM is 3.5%.

Regarding `Cc1ccc(NC=C2C(=O)Nc3ccccc32)cc1F` [Example 10, 3-[(3-Fluoro-4-methyl-phenylamino)-methylene]-1,3-dihydro-indol-2-one], the inhibition at 10 µM is 46%.

Regarding `Cc1cc(NC=C2C(=O)Nc3cccc(C)c32)ccc1O` [Example 132, 3-[(4-Hydroxy-3-methyl-phenylamino)-methylene]-4-methyl-1,3-dihydro-indol-2-one], the inhibition at 10 µM is 73%.

As to `O=C1Nc2ccccc2C1=CNc1ccccc1` [Example 1, 3-Phenylaminomethylene-1,3-dihydro-indol-2-one], the inhibition at 10 µM was determined as 92%.

Consider `CCOC(=O)Oc1cc(NC=C2C(=O)Nc3ccccc32)c(F)cc1C` [Example 26, Carbonic acid ethyl ester 4-fluoro-2-methyl-5-[(2-oxo-1,2-dihydro-indol-3-ylidenemethyl)-amino]-phenyl ester], for which the inhibition at 10 µM stood at 37.5%.

Take `COc1ccc(NC=C2C(=O)Nc3cccc(C)c32)cc1C(F)(F)F` [Example 121, 3-[(4-Methoxy-3-trifluoromethyl-phenylamino)-methylene]-4-methyl-1,3-dihydro-indol-2-one]: the inhibition at 10 µM amounted to 4.86%.

On to `CCc1ccccc1NC=C1C(=O)Nc2cccc(C)c21` [Example 127, 3-[(2-Ethyl-phenylamino)-methylene]-4-methyl-1,3-dihydro-indol-2-one], for which the inhibition at 10 µM is -11.8%.

As to `CC(C)c1ccc(NC=C2C(=O)Nc3ccc(Cl)cc32)cc1` [Example 70, 3-[(4-i-Propylphenylamino)-methylene]-5-chloro-1,3-dihydro-indol-2-one], the inhibition at 10 µM was determined as 25%.

Consider `CCc1cccc(NC=C2C(=O)Nc3ccc(Cl)cc32)c1` [Example 148, 5-Chloro-3-[(3-ethyl-phenylamino)-methylene]-1,3-dihydro-indol-2-one], for which the inhibition at 10 µM was determined as 42.2%.

As to `O=C1Nc2ccc(Cl)cc2C1=CNc1cccc(O)c1` [Example 76, 3-[(3-Hydroxyphenylamino)-methylene]-5-chloro-1,3-dihydro-indol-2-one], the inhibition at 10 µM was found to be 55.5%.

On to `O=C1Nc2ccccc2C1=CNc1ccc(Cl)cc1F` [Example 24, 3-[(4-Chloro-2-fluoro-phenylamino)-methylene]-1,3-dihydro-indol-2-one], for which the inhibition at 10 µM is -13.5%.

For `O=C1Nc2ccccc2C1=CNc1cccc(Br)c1` [Example 2, 3-[(3-Bromo-phenylamino)-methylene]-1,3-dihydro-indol-2-one], the inhibition at 10 µM is -0.5%.

Take `CC(C)(C)c1ccc(NC=C2C(=O)Nc3ccc(Cl)cc32)cc1` [Example 100, 5-Chloro-3-[(4-t-butyl-phenylamino)-methylene]-1,3-dihydro-indol-2-one]: the inhibition at 10 µM turned out to be 6%.

Regarding `O=C1Nc2ccccc2C1=CNc1cccc(C(F)(F)F)c1` [Example 22, 3-[(3-Trifluoromethyl-phenylamino)-methylene]-1,3-dihydro-indol-2-one], the inhibition at 10 µM came out at 22.5%.

The same test, now with this note: Homo sapiens, 0.01 to 10.0 μM, VEGF 5 ng/mL.
For `Cc1cccc2c1C(=CNc1ccc(CCCCN3CCOCC3)cc1)C(=O)N2` [Example 314, 4-Methyl-3-{[4-(4-morpholin-4-yl-butyl)-phenylamino]-methylene}-1,3-dihydro-indol-2-one], the half-maximal inhibitory concentration (IC50) stood at 0.32 µM.

In the case of `Cc1cc(NC=C2C(=O)Nc3ccccc32)ccc1O` [Example 133, 3-[(4-Hydroxy-3-methyl-phenylamino)-methylene]-1,3-dihydro-indol-2-one], the IC50 came out at 4.91 µM.

In the case of `Cc1ccc(NC=C2C(=O)Nc3ccccc32)cc1F` [Example 10, 3-[(3-Fluoro-4-methyl-phenylamino)-methylene]-1,3-dihydro-indol-2-one], the IC50 was no less than 10 µM.

As to `Cc1cc(NC=C2C(=O)Nc3cccc(C)c32)ccc1O` [Example 132, 3-[(4-Hydroxy-3-methyl-phenylamino)-methylene]-4-methyl-1,3-dihydro-indol-2-one], the IC50 stood at 7.38 µM.

On to `O=C1Nc2ccccc2C1=CNc1ccccc1` [Example 1, 3-Phenylaminomethylene-1,3-dihydro-indol-2-one], for which the IC50 worked out at 4.05 µM.

`Cc1cccc2c1C(=CNc1ccc(CCCCN3CCCCC3)cc1)C(=O)N2` [Example 320, 4-Methyl-3-{[4-(4-piperidin-1-yl-butyl)-phenylamino]-methylene}-1,3-dihydro-indol-2-one]: the IC50 was 0.33 µM.

As to `O=C1Nc2cccc(F)c2C1=CNc1ccc(CCCCN2CCOCC2)cc1` [Example 315, 4-Fluoro-3-{[4-(4-morpholin-4-yl-butyl)-phenylamino]-methylene}-1,3-dihydro-indol-2-one], the IC50 amounted to 1.54 µM.

For `O=C1Nc2ccc(Cl)cc2C1=CNc1ccc(CCCCN2CCOCC2)cc1` [Example 313, 5-Chloro-3-{[4-(4-morpholin-4-yl-butyl)-phenylamino]-methylene}-1,3-dihydro-indol-2-one], the IC50 stood at 0.99 µM.
